Laboratory results from PubChem BioAssay (NCI).
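Interpolation was linear, between the two tested concentrations surrounding the appropriate level; five concentrations were tested over 48 hours in 96-well plates. GI50 = concentration required for 50% inhibition of growth. TGI: concentration producing complete growth inhibition.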

Tests used:
Experiment in all cases: DTP human tumour cell line panel, 48 h
MCF7 breast = test system: MCF7 breast
HCT-116 colon = test system: HCT-116 colon
UACC-257 melanoma = test system: UACC-257 melanoma
RXF 393 renal = test system: RXF 393 renal
HL-60(TB) leukemia = test system: HL-60(TB) leukemia
OVCAR-4 ovarian = test system: OVCAR-4 ovarian
RPMI-8226 leukemia = test system: RPMI-8226 leukemia
A498 renal = test system: A498 renal
SNB-75 CNS = test system: SNB-75 CNS
SF-539 CNS = test system: SF-539 CNS

SMILES | GI50 (MCF7 breast) [µM] | TGI (MCF7 breast) [µM] | GI50 (HCT-116 colon) [µM] | TGI (HCT-116 colon) [µM] | GI50 (UACC-257 melanoma) [µM] | TGI (UACC-257 melanoma) [µM] | GI50 (RXF 393 renal) [µM] | TGI (RXF 393 renal) [µM] | GI50 (HL-60(TB) leukemia) [µM] | TGI (HL-60(TB) leukemia) [µM] | GI50 (OVCAR-4 ovarian) [µM] | TGI (OVCAR-4 ovarian) [µM] | GI50 (RPMI-8226 leukemia) [µM] | TGI (RPMI-8226 leukemia) [µM] | GI50 (A498 renal) [µM] | TGI (A498 renal) [µM] | GI50 (SNB-75 CNS) [µM] | TGI (SNB-75 CNS) [µM] | GI50 (SF-539 CNS) [µM] | TGI (SF-539 CNS) [µM]
CCOc1ccccc1/C=N\N=C(\N)N/N=C/c1ccccc1OCC | 1.01 | > 100 | 3.12 | > 100 | 4.37 | > 100 | 1.26 | 3.82 | 1.33 | 8.92 | 3.68 | > 100 | 2.82 | > 100 | 2.42 | > 100 | 1.78 | 8.05 | – | –
CC(C)c1ccc(Nc2nccc(-c3cnn4ncccc34)n2)cc1 | 0.0653 | – | 0.324 | 4.29 | 0.563 | 1.6 | 0.28 | 0.827 | 1.32 | 4.12 | 0.604 | 2.63 | 0.466 | 2.56 | 0.542 | 1.48 | 0.484 | 1.17 | 0.481 | 1.68
CCCc1cc(=O)n2c(C(=O)Nc3ccccc3OC)c(C(=O)Nc3ccc(F)cc3)sc2n1 | 14.6 | 115 | 4.61 | 22.2 | 20.2 | 60.2 | 5.14 | 12.1 | 37.4 | > 160 | 5.03 | 15.3 | 3.15 | 32.8 | 34.3 | 97.1 | 8.72 | 35 | 16.8 | 38
CC1(C)CC[C@]2(C(=O)N3CCOCC3)CC[C@]3(C)C(=CC[C@@H]4[C@@]5(C)C/C(=C/c6ccncc6)C(=O)C(C)(C)[C@@H]5CC[C@]43C)[C@@H]2C1 | 0.509 | 15.3 | 0.319 | 2 | 3.68 | > 100 | 1.22 | 3.03 | 1.16 | 3.96 | 2.34 | > 100 | 0.476 | 3.36 | 1.83 | 4.96 | 3.21 | > 100 | 1.73 | 3.7
COc1cc(C(=O)/C=C/c2cccnc2Nc2ccccc2)cc(OC)c1OC | 0.357 | 1.64 | 0.337 | 1.31 | 1.51 | 2.86 | 1.12 | 2.37 | 1.52 | 4.98 | 1.45 | 2.76 | 0.349 | 2.05 | 1.42 | 2.75 | 1.13 | 2.34 | 1.65 | 3.12
CN(C)CC1CCCCCC(CN(C)C)C1=O (configuration not stated) | 2.85 | 15.3 | 1.07 | 3.91 | 1.77 | 4.6 | 1.58 | 3.35 | 2.24 | 8.57 | 3.4 | 21.7 | 3.15 | 13.9 | 15.1 | 29.6 | 12.2 | 27.5 | 4.16 | 15.7
CCNCCNc1cc(C2CCCCC2)c(C#N)c2nc3ccccc3n12 | 1.53 | 3.27 | 1.37 | 2.72 | 2.34 | 4.38 | 1.7 | 3.19 | 1.46 | 3.49 | 2.1 | 6.42 | 2.11 | 5.02 | 1.56 | 2.95 | 1.52 | 3.4 | – | –
CCCOC(=O)CCn1c(SC)nc2[nH]cc(-c3ccccc3)c2c1=O | 19.7 | > 100 | 15.4 | 41 | 33.8 | > 100 | 19.1 | 54.8 | 1.77 | 23.2 | 29.2 | 95.8 | 12.7 | 33.6 | 27.9 | 87.9 | 13.4 | 57.6 | 24.9 | > 100
CCCCCCCOc1c(OC)cc(C2CC(=O)Nc3c2c(C)nn3-c2nc3ccccc3[nH]2)cc1OC (configuration not stated) | 2.91 | > 100 | 3.49 | > 100 | 4.03 | > 100 | 1.96 | 5.02 | 2.88 | 9.03 | – | – | 3.71 | > 100 | 0.881 | 3.9 | – | – | 1.66 | 3.11
CCN(CC)c1ccc(C(=N)c2ccc(N(C)C)cc2)cc1 | 0.197 | 7.25 | 0.155 | 3.39 | 1.36 | 5.11 | 1.18 | 4.02 | 0.886 | 15.9 | 2.75 | > 39.5 | – | – | 1.17 | 6.32 | 2.26 | > 21.7 | 1.63 | 4.18
CC(C)(C#N)c1cc(C(=O)Nc2cc(Nc3ncccc3-c3ncnc4nc[nH]c34)ccc2F)cc(C(F)(F)F)c1 | – | > 4.6 | 0.242 | > 2.35 | 0.112 | > 3.21 | – | > 2.89 | 0.526 | > 10 | 1.3 | > 2.93 | 4.84 | > 10 | 0.126 | 0.844 | – | > 10 | – | –
CCCCNC(=O)NS(=O)(=O)c1ccc(N2N=C(c3cc(C)ccc3C)CC2c2cc(OC)c(OC)c(OC)c2)cc1 (configuration not stated) | 2.06 | 5.58 | – | – | 3.39 | 12.9 | 2.61 | 6.97 | 2.87 | 7.62 | 2.52 | 14.5 | 1.95 | 5.49 | 2.31 | 6.01 | 2.12 | 5.83 | 1.9 | 3.88
